Target: Methionine aminopeptidase (Staphylococcus aureus (strain MW2), UniProt P0A079)
Experiment: MetAP Inhibition Assay
Conditions: pH 7.5; 22 °C
Experimental: The MetAP reaction with Co2+ as a cofactor is coupled to a prolyl aminopeptidase (ProAP) using Met-Pro-p-nitroanilide as substrate. MetAP-catalyzed cleavage of the N-terminal methionine produces prolyl-p-nitroanilide, which is rapidly hydrolyzed by ProAP to release a chromogenic product. This allows the MetAP reaction to be continuously monitored at 405 nm on a UVVIS spectrophotometer. The initial rate was calculated from the early part of the reaction progress curve (<5 min). Activity assays were performed in triplicate using eight to 16 concentrations of substrate or inhibitor.

Chain of Methionine aminopeptidase (P0A079 whole entry): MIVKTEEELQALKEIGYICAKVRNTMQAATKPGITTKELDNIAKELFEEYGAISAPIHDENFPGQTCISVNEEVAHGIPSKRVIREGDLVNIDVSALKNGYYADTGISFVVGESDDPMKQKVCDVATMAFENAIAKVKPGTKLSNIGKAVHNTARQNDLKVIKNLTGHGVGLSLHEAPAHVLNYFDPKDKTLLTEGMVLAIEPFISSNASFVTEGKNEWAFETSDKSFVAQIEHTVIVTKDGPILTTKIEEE

Question: Which IC50 does the source give for CSCC[C@H](N)C(=O)c1ccccn1 [(2S)-2-amino-4-(methylsulfanyl)-1-(pyridin-2-yl)butan-1-one] here?
Answer: 16 µM

Question: For CSCC[C@H](N)C(=O)c1nccs1 [(2S)-2-amino-4-(methylsulfanyl)-1-(1,3-thiazol-2-yl)butan-1-one], which IC50 is on record?
Answer: 19 µM

From BindingDB's records for doi:10.1021/jm034188j (Morphochem, 2004)
